# Data: patent publication US20240239780A1, “MODIFIED FERROPORTIN INHIBITORS” (Vifor (International) AG, priority 2021, published 2024)
# Molecular target: T1, ferroportin (Fpn) (Mus musculus, UniProt Q9JHI9)
# T1 construct: endogenous in cells; host or cells: J774 mouse macrophage cell line, induced with Fe(III)NTA
# T1 sequence (Q9JHI9 1-570): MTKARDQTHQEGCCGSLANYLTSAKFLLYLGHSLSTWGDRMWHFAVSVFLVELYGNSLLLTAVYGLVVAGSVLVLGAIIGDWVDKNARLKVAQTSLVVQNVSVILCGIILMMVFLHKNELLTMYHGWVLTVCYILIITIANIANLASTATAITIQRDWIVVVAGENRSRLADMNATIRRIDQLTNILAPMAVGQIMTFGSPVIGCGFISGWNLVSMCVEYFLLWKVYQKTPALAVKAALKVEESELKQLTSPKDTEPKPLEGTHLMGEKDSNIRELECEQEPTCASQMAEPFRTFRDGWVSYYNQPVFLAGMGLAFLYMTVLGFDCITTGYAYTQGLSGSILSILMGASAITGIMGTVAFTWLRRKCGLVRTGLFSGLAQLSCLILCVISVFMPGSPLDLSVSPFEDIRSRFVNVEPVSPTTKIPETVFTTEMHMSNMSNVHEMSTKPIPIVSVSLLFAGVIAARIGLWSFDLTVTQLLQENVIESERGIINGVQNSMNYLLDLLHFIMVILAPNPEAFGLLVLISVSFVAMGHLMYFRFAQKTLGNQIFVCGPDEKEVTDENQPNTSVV
# Assay: Hepcidin Internalization Assay (J774)
# Type: cell-based
# Conditions: J774 cells, TMR-hepcidin 25 nM, 2 hours; read-out: IC 50, average (AVE) of multiple measurements, hepcidin internalization assay
# Text: This cellular assay allows quantification of the binding of hepcidin to ferroportin (Fpn) through microscopic detection of internalization of a fluorescently labeled hepcidin into J774 cells. […] Binding of hepcidin to Fpn triggers internalization and degradation of both hepcidin and Fpn. […] Therefore, microscopic detection of cell-associated TMR fluorescence is a measure of hepcidin binding to Fpn and internalization of hepcidin and Fpn. If TMR-hepcidin is prevented from binding to Fpn, cellular TMR fluorescence remains low (Dürrenberger et al, 2013). The effect of small molecular weight Fpn inhibitor compounds in this assay was evaluated in vitro as described below. […] Cat. 655090) and grown at 37° C. with 5% CO2. After overnight incubation, cells were washed 3 times with pre-warmed DMEM w/o phenol red, 30 μl/well of DMEM w/o phenol red was added after the final wash and 10 μl/well of dilution series of test compounds were added in triplicates. […] Cells were incubated in a total volume of 50 μl at 37° C. with 5% CO2 for 2 hours, then Hoechst 33342 dye was added to a final concentration of 0.5 μg/ml to stain nuclei and further incubated for 10 min. at 37° C. with 5% CO2. […] After removal of the paraformaldehyde solution, cells were washed 3 times with PBS leaving 100 μl per well and the plates were sealed with foil plate seal. […] The acquired image data was analysed with the […] analysis software. […] IC50 values were calculated with the Sum(Mean) raw data using “log(inhibitor) vs. response” curve fitting of Prism 5 software (GraphPad Software Inc., version 5.02). For each data set the fit of the “log(inhibitor) vs. response (three parameters)” model was compared to the fit of the “log(inhibitor) vs. response-Variable slope (four parameters)” model and the IC50 data of the preferred model was used.
row,IC50 [nM],Compound
1,1040,O=C(NCc1ncccc1F)c1coc(CCNCCc2nc3ccc(-c4nn[nH]n4)cc3[nH]2)n1 [compound 40]
2,37,COc1cccnc1CNC(=O)c1coc(CCNCCc2nc3cc(-n4cccc4)ccc3[nH]2)n1 [compound 54]
3,7,O=C(NCc1ncccc1F)c1coc(CCNCCc2nc3cc(-c4cccc5c4OCCO5)ccc3[nH]2)n1 [compound 81]
4,26,Cc1cccnc1CNC(=O)c1coc(CCNCCc2nc3cc(-c4ccccc4)ccc3[nH]2)n1 [compound 52]
5,83,O=C(NCc1ncccc1F)c1coc(CCNCCc2nc3cccc(C#Cc4cccnc4)c3[nH]2)n1 [compound 80]
6,2,O=C(NCc1ncccc1Cl)c1coc(CCNCCc2nc3cc4c(cc3[nH]2)OCCO4)n1 [compound 55]
7,27,O=C(NCc1ncccc1F)c1coc(CCNCCc2nc3cc(-c4ccc(Cl)cc4)ccc3[nH]2)n1 [compound 57]
8,5.8,O=C(NCc1ncccc1F)c1coc(CCNCCc2nc3cc(-c4ccc(-c5ncco5)cc4)ccc3[nH]2)n1 [compound 90]
9,12,Cc1cccc(-c2ccc3[nH]c(CCNCCc4nc(C(=O)NCc5ncccc5F)co4)nc3c2)c1C [compound 84]
10,15,Cc1cccc(-c2ccc3[nH]c(CCNCCc4nc(C(=O)NCc5ncccc5F)co4)nc3c2)c1 [compound 65]
11,33,O=C(NCc1ncccc1Cl)c1coc(CCNCCc2nc3c(ccc4ccccc43)[nH]2)n1 [compound 14]
12,6700,O=C(NCc1nc2ccccc2c2ccccc12)c1coc(CCNCCc2nc3c(ccc4ccccc43)[nH]2)n1 [compound 8]
13,61,O=C(NCc1ccccn1)c1coc(CCNCCc2nc3cc(-c4cccc(F)c4)ccc3[nH]2)n1 [compound 69]
14,350,"O=C(NCc1ncccc1F)c1coc(CCNCc2nc3cnc4ccccc4c3[nH]2)n1 [compound 2, 2-(2-(((3H-imidazo[4,5-c]quinolin-2-yl)methyl)amino)ethyl)-N-((3-fluoropyridin-2-yl)methyl)oxazole-4-carboxamide]"
15,28,O=C(NCc1ncccc1Cl)c1coc(CCNCCc2nc3cc(-n4cccc4)ccc3[nH]2)n1 [compound 59]
16,11,Cc1cccnc1CNC(=O)c1coc(CCNCCc2nc3cc4c(cc3[nH]2)OCCO4)n1 [compound 47]
17,13900,O=C(NCc1ccc2c(ccc3ccccc32)n1)c1coc(CCNCCc2nc3c(cnc4ccccc43)[nH]2)n1 [compound 12]
18,26,COc1cccc(-c2ccc3[nH]c(CCNCCc4nc(C(=O)NCc5ccccn5)co4)nc3c2)c1 [compound 70]
19,84,O=C(NCc1ncccc1F)c1coc(CCNCCc2nc3cccc(C#Cc4cccc(-c5ncco5)c4)c3[nH]2)n1 [compound 79]
20,17,COc1ccccc1-c1ccc2[nH]c(CCNCCc3nc(C(=O)NCc4ncccc4OC)co3)nc2c1 [compound 51]
21,15,O=C(NCc1ncccc1F)c1coc(CCNCCc2nc3cc(-c4cccc5c4CCCC5)ccc3[nH]2)n1 [compound 82]
22,6,O=C(NCc1ncccc1F)c1coc(CCNCCc2nc3cc(-c4ccccc4Cl)ccc3[nH]2)n1 [compound 44]
23,53,O=C(NCc1ncccc1F)c1coc(CCNCCc2nc3c(-c4cccnc4)cccc3[nH]2)n1 [compound 18]
24,7,O=C(NCc1ncccc1F)c1coc(CCNCCc2nc3cc4c(cc3[nH]2)OCCO4)n1 [compound 34]
25,3,CN(C)C(=O)c1cccc(C#Cc2ccc3[nH]c(CCNCCc4nc(C(=O)NCc5ncccc5F)co4)nc3c2)c1 [compound 76]
26,6,CCc1ccccc1-c1ccc2[nH]c(CCNCCc3nc(C(=O)NCc4ncccc4F)co3)nc2c1 [compound 71]
27,8,Cc1ccccc1-c1ccc2[nH]c(CCNCCc3nc(C(=O)NCc4ncccc4F)co3)nc2c1 [compound 62]
28,9,O=C(NCc1ncccc1F)c1coc(CCNCCc2nc3cc4ccccc4cc3[nH]2)n1 [compound 43]

row,IC50 [nM],Compound
1,1590,O=C(NCc1nc2ccccc2c2ccccc12)c1coc(CCNCCc2nc3ccccc3[nH]2)n1 [compound 7]
2,6,COc1ccccc1-c1ccc2[nH]c(CCNCCc3nc(C(=O)NCc4ncccc4F)co3)nc2c1 [compound 45]
3,12,O=C(NCc1ncccc1F)c1coc(CCNCCc2nc3cc(-c4ccc5c(c4)OCCO5)ccc3[nH]2)n1 [compound 88]
4,55,Cc1cccnc1CNC(=O)c1coc(CCNCCc2nc3c(ccc4ccccc43)[nH]2)n1 [compound 13]
5,11,O=C(NCc1ncccc1F)c1coc(CCNCCc2nc3cc(-c4cccc(F)c4)ccc3[nH]2)n1 [compound 61]
6,13,"O=C(NCc1ncccc1F)c1coc(CCNCCc2nc3c(ccc4ccccc43)[nH]2)n1 [compound 5, 2-(2-((2-(3H-naphtho[1,2-d]imidazol-2-yl)ethyl)amino)ethyl)-N-((3-fluoropyridin-2-yl)methyl)oxazole-4-carboxamide]"
7,41,COc1cccc(C#Cc2cccc3nc(CCNCCc4nc(C(=O)NCc5ncccc5F)co4)[nH]c23)c1 [compound 78]
8,33,COc1cccnc1CNC(=O)c1coc(CCNCCc2nc3c(ccc4ccccc43)[nH]2)n1 [compound 15]
9,16,COc1cccnc1CNC(=O)c1coc(CCNCCc2nc3cc(-c4ccccc4)ccc3[nH]2)n1 [compound 53]
10,18,COc1ccccc1-c1ccc2[nH]c(CCNCCc3nc(C(=O)NCc4ncccc4C)co3)nc2c1 [compound 49]
11,34,O=C(NCc1ncccc1F)c1coc(CCNCCc2nc3cccc(C#Cc4ccccc4)c3[nH]2)n1 [compound 37]
12,7,COc1cccnc1CNC(=O)c1coc(CCNCCc2nc3cc(-c4ccc(C)cc4)ccc3[nH]2)n1 [compound 74]
13,68,"O=C(NCc1ncccc1F)c1coc(CCNCc2nc3c(ccc4ccccc43)[nH]2)n1 [compound 4, 2-(2-(((3H-naphtho[1,2-d]imidazol-2-yl)methyl)amino)ethyl)-N-((3-fluoropyridin-2-yl)methyl)oxazole-4-carboxamide]"
14,2,O=C(NCc1ncccc1F)c1coc(CCNCCc2nc3cc(CCc4ccccc4)ccc3[nH]2)n1 [compound 75]
15,2,O=C(NCc1ncccc1F)c1coc(CCNCCc2nc3cc(C#Cc4ccccc4)ccc3[nH]2)n1 [compound 72]
16,6,O=C(NCc1ncccc1F)c1coc(CCNCCc2nc3cc(-c4ccccc4)ccc3[nH]2)n1 [compound 19]
17,10,O=C(NCc1ncccc1F)c1coc(CCNCCc2nc3cc(-c4ccc5c(c4)CCCC5)ccc3[nH]2)n1 [compound 89]
18,144,O=C(NCc1ncccc1F)c1coc(CCNCCc2nc3c(-c4cccc(Cl)c4)cccc3[nH]2)n1 [compound 28]
19,49,O=C(NCc1ncccc1C(F)(F)F)c1coc(CCNCCc2nc3cc4c(cc3[nH]2)OCCO4)n1 [compound 56]
20,11,O=C(NCc1ncccc1F)c1coc(CCNCCc2nc3cc(-c4cccc(Cl)c4)ccc3[nH]2)n1 [compound 85]
21,27,O=C(NCc1ncccc1F)c1coc(CCNCCc2nc3cc(-n4cccc4)ccc3[nH]2)n1 [compound 32]
22,19,COc1cccnc1CNC(=O)c1coc(CCNCCc2nc3c4c(ccc3[nH]2)CCCC4)n1 [compound 50]
23,11,O=C(NCc1ncccc1F)c1coc(CCNCCc2nc3cc4c(cc3[nH]2)OCO4)n1 [compound 36]
24,10,COc1ccc(-c2ccc3[nH]c(CCNCCc4nc(C(=O)NCc5ncccc5F)co4)nc3c2)cc1 [compound 64]
25,68,O=C(NCc1ccccn1)c1coc(CCNCCc2nc3cc(-c4ccc(F)cc4)ccc3[nH]2)n1 [compound 66]
26,12,O=C(NCc1ncccc1F)c1coc(CCNCCc2nc3c4c(ccc3[nH]2)CCCC4)n1 [compound 39]
27,7,O=C(NCc1ncccc1F)c1coc(CCNCCc2nc3cc(-c4ccccc4F)ccc3[nH]2)n1 [compound 46]
